Measurements taken from ChEMBL document CHEMBL1127918, “The role of peptide bond in chemotactic for-met-leu-phe-ome focused by depsipeptide analogs” (1994).
Where a SMILES comes first, the peptide text is derived from it. [ ]: non-standard residue; d: D form. The star is where a group is joined. PhLac = O=C(O)[C@@H](O)Cc1ccccc1; NHBn = c1ccc(CN*)cc1; For = O=C*

Key:
Type in all cases: functional
[1] = species on record: Homo sapiens; experiment: (§1) Superoxide anion release expressed as n moles of superoxide anion/2E6 neutrophils/5 min
[2] = species on record: Homo sapiens; experiment: (§2) Chemotactic activity was expressed as percentage of random locomotion
[3] = species on record: Homo sapiens; experiment: Chemotactic activity was expressed as percentage of random locomotion of human neutrophils
[4] = species on record: Homo sapiens; experiment: as §1; remark: listed apart in the source
[5] = species on record: Homo sapiens; experiment: as §1; remark: listed apart in the source
[6] = species on record: Homo sapiens; experiment: as §2; remark: listed apart in the source
[7] = species on record: Homo sapiens; experiment: as §2; remark: listed apart in the source
[8] = species on record: Homo sapiens; experiment: lysozyme release expressed as percentage of total enzyme content released by 0.1% Triton X-100
[9] = species on record: Homo sapiens; experiment: Chemotactic activity was expressed as percentage of random locomotion human neutrophils

| SMILES | Superoxide anion release [1] | Chemotactic activity (% of random locomotion) [2] | Chemotactic activity at 10^-10 M (% of random locomotion) [3] | Log [-9] [3] | Superoxide anion release [4] | Superoxide anion release [5] | Superoxide anion release at 10^-8 M [5] | Chemotactic activity (% of random locomotion) [6] | Chemotactic activity (% of random locomotion) [7] | chemotactic activity (% of random locomotion) at 10^-8 M [7] | Log [-5] [8] | Log [-6] [8] | Log [-7] [8] | Log [-8] [8] | Log [-9] [9] |
| --- | --- | --- | --- | --- | --- | --- | --- | --- | --- | --- | --- | --- | --- | --- | --- |
| COC(=O)[C@H](Cc1ccccc1)NC(=O)C(C)(N)COC(=O)[C@H](CCSC)NC=O (stereo partly specified) | 0 | 7 | 10 | 9 | 0 | 0 | 0 | 4 | 14 | 14 | 15 | 13 | 11 | 15 |  |
| COC(=O)[C@H](Cc1ccccc1)NC(=O)[C@H](CC(C)C)OC(=O)[C@H](CCSC)NC=O | 0 | 9 | 0 |  | 0 | 0 | 0 | 10 | 13 | 8 | 10 | 12 | 10 | 11 | 11 |
| CSCC[C@H](NC=O)C(=O)N[C@@H](CC(C)C)C(=O)O[C@@H](Cc1ccccc1)C(=O)NCc1ccccc1 (For-Met-Leu-[PhLac]-NHBn) | 32 | 55 | 62 | 54 | 24 | 14 | 8 | 20 | 51 | 51 | 40 | 38 | 35 | 24 |  |
| COC(=O)[C@H](Cc1ccccc1)NC(=O)[C@H](CC(C)C)NC(=O)[C@H](CCSC)NC=O | 37 | 62 | 105 | 115 | 43 | 44 | 7 | 36 | 85 | 105 | 62 | 67 | 59 | 54 |  |
